# Laboratory results as given in article PMC7735645 (Journal of the American Chemical Society, 2019).
# Tests used:
# A549 cells [1] = experiment: NPM1 relocalization; assay type: cell-based; settings: for NPM1 redistribution: free ligand alone, Figures S2 and S3
# DNA damage = DNA damage in treated cells; assay type: cell-based; settings: early time points, unpublished data from the authors' lab
# A549 cells [2] = experiment: 24 h IC50; assay type: cell-based; settings: read-out: 24 h IC50 value, Table S1
# [3] = water/octanol partition coefficient; assay type: physicochemical
# [4] = A549 cells, 24 h treatment, 10 μM
compound,measurement,setting,value
"NC1CCCCC1N (stereo not drawn) [DACH ligand, diaminocyclohexane, reference compound]",NPM1 redistribution,A549 cells [1],no influence on NPM1 redistribution
"N.N.[Cl][Pt][Cl] [compound 1, cisplatin, reference compound]",NPM1 redistribution / nucleolar stress induction,A549 cells [1]; [4],more closely resembles that of the no-treatment control
same,NPM1 redistribution / nucleolar stress induction,"A549 cells [1]; A549 cells, 24 h treatment, 10 μM, listed as cisplatin",a small amount of NPM1 redistribution was observed
same,DNA damage relative to NPM1 relocation,DNA damage,DNA damage occurs at early time points
"O=C1[O][Pt]2([NH][C@@H]3CCCC[C@H]3[NH]2)[O]C1=O [compound 2, oxaliplatin, reference compound]",NPM1 redistribution / nucleolar stress induction,A549 cells [1]; [4],induces robust redistribution of NPM1
same,NPM1 redistribution / nucleolar stress induction,"A549 cells [1]; A549 cells, 24 h treatment, 10 μM, listed as Oxaliplatin",robust NPM1 relocalization
same,DNA damage relative to NPM1 relocation,DNA damage,no such damage occurs prior to observed NPM1 distribution
same,IC50,A549 cells [2],81.5 µM
"[NH2][Pt]1([NH2])[O]C(=O)C2(CCC2)C(=O)[O]1 [compound 3, carboplatin, reference compound]",NPM1 redistribution / nucleolar stress induction,A549 cells [1]; [4],more closely resembles that of the no-treatment control
"NC1CCCCC1N.[Cl][Pt][Cl] (stereo not drawn) [compound 4, DACHPt]",NPM1 redistribution / nucleolar stress induction,A549 cells [1]; [4],induces robust nucleolar stress
same,"relative hydrophobicity (water/octanol partition coefficient, log P)",[3],more hydrophobic than the simpler diam(m)ine compounds
"N.N.O=C([O-])C(=O)[O-].[Pt+2] [compound 5, DOAP]",NPM1 redistribution / nucleolar stress induction,A549 cells [1]; [4],does not induce stress
"O=C(O)C(=O)O [oxalic acid ligand, oxalic acid, reference compound]",NPM1 redistribution,A549 cells [1],no influence on NPM1 redistribution
Pentaplatin [compound 9],NPM1 redistribution / nucleolar stress induction,A549 cells [1]; [4],found to induce nucleolar stress
same,coefficient of variation (CV) of NPM1 intensity,A549 cells [1]; [4],slightly higher resultant CV than positive controls or oxaliplatin
